# According to US6355799B1, “Substituted benzene compounds, process for their preparation, and herbicidal and defoliant compositions containing them” (ISK Americas Incorporated, priority 1997, dated 2002):
# Assays:
# Type in all cases: in vivo
# [1] = tested on: redroot pigweed (Amaranthus retroflexus, AMARE); assay: Pre-emerge test, greenhouse herbicide activity screening; conditions: pre-emerge, 14 days after application
# In short: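 Compounds in acetone were track-sprayed at 187 l/ha, 15–1000 g ai/ha, onto sandy loam pots. Pre-emerge seeds were sown one day before spraying, with surface watering afterwards. Post-emerge plants were at the 2–3 leaf stage and sprayed with 0.25% v/v non-ionic surfactant. Injury was rated 0–100 at 14 days.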
# [2] = tested on: field corn (Zea mays L., var. Dekalb 535, CORN); assay: Post-emerge test, crop safety; conditions: post-emerge, 14 days after application, rating scale 0-100
# In short: (§1)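 Each test used a mechanized track sprayer delivering 187 l/ha of acetone solution at 15–1000 g ai/ha. Post-emerge foliage at 2–3 leaves was treated with added 0.25% v/v non-ionic surfactant and bottom-watered only. Injury was assessed on day 14, where 100 means total kill.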
# [3] = tested on: upland rice (Oryza sp., var. Tebonnet, RICE); assay: Post-emerge test, crop safety; conditions: post-emerge, 14 days after application, rating scale 0-100
# In short: as §1
# [4] = tested on: barnyardgrass (Echinochloa crus-galli, ECHCG); assay: Post-emerge test, greenhouse herbicide activity screening; conditions: post-emerge, 14 days after application, rating scale 0-100
# In short: as §1
# [5] = tested on: ivyleaf morningglory (Ipomoea hederacea, IPOHE); assay: as above; conditions: post-emerge, 14 days after application, rating scale 0-100
# In short: as §1
# [6] = tested on: large crabgrass (Digitaria sanguinalis, DIGSA); assay: as above; conditions: post-emerge, 14 days after application, rating scale 0-100
# In short: as §1
# [7] = tested on: redroot pigweed (Amaranthus retroflexus, AMARE); assay: as above; conditions: post-emerge, 14 days after application
# In short: as §1
# [8] = tested on: velvetleaf (Abutilon theophrasti, ABUTH); assay: as above; conditions: post-emerge, 14 days after application, rating scale 0-100
# In short: as §1
# [9] = tested on: lambsquarters (Chenopodium album, CHEAL); assay: as above; conditions: post-emerge, 14 days after application, rating scale 0-100
# In short: as §1
# [10] = tested on: sicklepod (Cassia obtusifolia, CASOB); assay: as above; conditions: post-emerge, 14 days after application, rating scale 0-100
# In short: as §1
# [11] = tested on: green foxtail (Setaria viridis, SETVI); assay: as above; conditions: post-emerge, 14 days after application, rating scale 0-100
# In short: as §1
# [12] = tested on: johnsongrass (Sorghum halepense, SORHA); assay: as above; conditions: post-emerge, 14 days after application, rating scale 0-100
# In short: as §1
# [13] = tested on: barnyardgrass (Echinochloa crus-galli, ECHCG); assay: Pre-emerge test, greenhouse herbicide activity screening; conditions: pre-emerge, 14 days after application
# In short: (§2)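 Plants grown in 10 cm pots of sandy loam mix received acetone-dissolved compounds through a moving flat-fan nozzle. Doses ranged from 15 to 1000 g ai/ha. Pre-emerge pots were seeded one day earlier, post-emerge pots 8–21 days earlier. Fourteen days on, each pot was graded 0–100 for damage.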
# [14] = tested on: ivyleaf morningglory (Ipomoea hederacea, IPOHE); assay: as above; conditions: pre-emerge, 14 days after application
# In short: as §2
# [15] = tested on: large crabgrass (Digitaria sanguinalis, DIGSA); assay: as above; conditions: pre-emerge, 14 days after application
# In short: as §2
# [16] = tested on: velvetleaf (Abutilon theophrasti, ABUTH); assay: as above; conditions: pre-emerge, 14 days after application
# In short: as §2
# [17] = tested on: lambsquarters (Chenopodium album, CHEAL); assay: as above; conditions: pre-emerge, 14 days after application
# In short: as §2
# [18] = tested on: sicklepod (Cassia obtusifolia, CASOB); assay: as above; conditions: pre-emerge, 14 days after application
# In short: as §2
# [19] = tested on: green foxtail (Setaria viridis, SETVI); assay: as above; conditions: pre-emerge, 14 days after application
# In short: as §2
# [20] = tested on: johnsongrass (Sorghum halepense, SORHA); assay: as above; conditions: pre-emerge, 14 days after application
# In short: as §2
# [21] = tested on: field corn (Zea mays L., var. Dekalb 535, CORN); assay: Pre-emerge test, crop safety; conditions: pre-emerge, 14 days after application; for phytotoxicity rating CORN: rating scale 0-100; for phytotoxicity rating CORN (crop damage): scale 0-100
# In short: (§3)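 Fourteen days after spraying, crop and weed injury was graded visually from 0, no effect, to 100, every plant dead. Test substances were dissolved in acetone and applied at 15–1000 g ai/ha with a flat-fan nozzle. Application was either pre-emergence, one day after sowing, or post-emergence at the 2–3 leaf stage.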
# [22] = tested on: upland rice (Oryza sp., var. Tebonnet, RICE); assay: Pre-emerge test, crop safety; conditions: pre-emerge, 14 days after application; for phytotoxicity rating RICE: rating scale 0-100; for phytotoxicity rating RICE (crop damage): scale 0-100
# In short: as §3
# [23] = 250 g ai/ha, rating scale 0-100
smiles,measurement,setting,value
"COc1c(Cl)cc(F)c(-n2c(=O)cc(C(F)(F)F)n(C)c2=O)c1SC [Compound 17-1, 3-(4-chloro-6-fluoro-3-methoxy-2-thiomethylphenyl)l-methyl-6-trifluoromethyl-2,4(1H, 3H)-pyrimidinedione]",phytotoxicity rating AMARE,"[1]; 63 g ai/ha, rating scale 0-100",30
same,phytotoxicity rating AMARE,[1]; [23],90
same,Post-emerge Herbicidal Activity CORN (crop damage rating),[2]; 63 g ai/ha,0
same,Post-emerge Herbicidal Activity CORN (crop damage rating),[2]; 250 g ai/ha,5
same,Post-emerge Herbicidal Activity RICE (crop damage rating),[3]; 63 g ai/ha,0
same,Post-emerge Herbicidal Activity RICE (crop damage rating),[3]; 250 g ai/ha,0
same,Post-emerge Herbicidal Activity ECHCG (phytotoxicity rating),[4]; 63 g ai/ha,0
same,Post-emerge Herbicidal Activity ECHCG (phytotoxicity rating),[4]; 250 g ai/ha,0
same,Post-emerge Herbicidal Activity IPOHE (phytotoxicity rating),[5]; 63 g ai/ha,80
same,Post-emerge Herbicidal Activity IPOHE (phytotoxicity rating),[5]; 250 g ai/ha,80
same,Post-emerge Herbicidal Activity DIGSA (phytotoxicity rating),[6]; 63 g ai/ha,0
same,Post-emerge Herbicidal Activity DIGSA (phytotoxicity rating),[6]; 250 g ai/ha,0
same,Post-emerge Herbicidal Activity AMARE (phytotoxicity rating),"[7]; 63 g ai/ha, rating scale 0-100 (0 no damage, 100 complete death)",10
same,Post-emerge Herbicidal Activity AMARE (phytotoxicity rating),[7]; [23],30
same,Post-emerge Herbicidal Activity ABUTH (phytotoxicity rating),[8]; 63 g ai/ha,70
same,Post-emerge Herbicidal Activity ABUTH (phytotoxicity rating),[8]; 250 g ai/ha,70
same,Post-emerge Herbicidal Activity CHEAL (phytotoxicity rating),[9]; 63 g ai/ha,30
same,Post-emerge Herbicidal Activity CHEAL (phytotoxicity rating),[9]; 250 g ai/ha,60
same,Post-emerge Herbicidal Activity CASOB (phytotoxicity rating),[10]; 63 g ai/ha,20
same,Post-emerge Herbicidal Activity CASOB (phytotoxicity rating),[10]; 250 g ai/ha,10
same,Post-emerge Herbicidal Activity SETVI (phytotoxicity rating),[11]; 63 g ai/ha,0
same,Post-emerge Herbicidal Activity SETVI (phytotoxicity rating),[11]; 250 g ai/ha,0
same,Post-emerge Herbicidal Activity SORHA (phytotoxicity rating),[12]; 63 g ai/ha,0
same,Post-emerge Herbicidal Activity SORHA (phytotoxicity rating),[12]; 250 g ai/ha,0
same,phytotoxicity rating ECHCG,"[13]; 63 g ai/ha, rating scale 0-100",0
same,phytotoxicity rating ECHCG,[13]; [23],70
same,phytotoxicity rating IPOHE,"[14]; 63 g ai/ha, rating scale 0-100",10
same,phytotoxicity rating IPOHE,[14]; [23],70
same,phytotoxicity rating DIGSA,"[15]; 63 g ai/ha, rating scale 0-100",20
same,phytotoxicity rating DIGSA,[15]; [23],80
same,phytotoxicity rating ABUTH,"[16]; 63 g ai/ha, rating scale 0-100",95
same,phytotoxicity rating ABUTH,[16]; [23],100
same,phytotoxicity rating CHEAL,"[17]; 63 g ai/ha, rating scale 0-100",90
same,phytotoxicity rating CHEAL,[17]; [23],100
same,phytotoxicity rating CASOB,"[18]; 63 g ai/ha, rating scale 0-100",0
same,phytotoxicity rating CASOB,[18]; [23],80
same,phytotoxicity rating SETVI,"[19]; 63 g ai/ha, rating scale 0-100",50
same,phytotoxicity rating SETVI,[19]; [23],80
same,phytotoxicity rating SORHA,"[20]; 63 g ai/ha, rating scale 0-100",0
same,phytotoxicity rating SORHA,[20]; [23],60
same,phytotoxicity rating CORN,[21]; 63 g ai/ha,0
same,phytotoxicity rating CORN,[21]; 250 g ai/ha,10
same,phytotoxicity rating RICE,[22]; 63 g ai/ha,10
same,phytotoxicity rating RICE,[22]; 250 g ai/ha,30
COc1cc2ccccc2cc1C(=O)Nc1c(OC)c(Cl)cc(F)c1-n1c(=O)cc(C(F)(F)F)n(C)c1=O [2-152],phytotoxicity rating AMARE,"[1]; 63 g ai/ha, scale 0-100",100
same,phytotoxicity rating AMARE,"[1]; 250 g ai/ha, scale 0-100",100
same,CORN phytotoxicity rating (crop damage),[2]; 63 g ai/ha,15
same,CORN phytotoxicity rating (crop damage),[2]; 250 g ai/ha,30
same,RICE phytotoxicity rating (crop damage),[3]; 63 g ai/ha,40
same,RICE phytotoxicity rating (crop damage),[3]; 250 g ai/ha,65
same,ECHCG phytotoxicity rating,[4]; 63 g ai/ha,30
same,ECHCG phytotoxicity rating,[4]; 250 g ai/ha,50
same,IPOHE phytotoxicity rating,[5]; 63 g ai/ha,100
same,IPOHE phytotoxicity rating,[5]; 250 g ai/ha,100
same,DIGSA phytotoxicity rating,[6]; 63 g ai/ha,20
same,DIGSA phytotoxicity rating,[6]; 250 g ai/ha,30
same,AMARE phytotoxicity rating,"[7]; 63 g ai/ha, rating scale 0-100",100
same,AMARE phytotoxicity rating,[7]; [23],100
same,ABUTH phytotoxicity rating,[8]; 63 g ai/ha,100
same,ABUTH phytotoxicity rating,[8]; 250 g ai/ha,100
same,CHEAL phytotoxicity rating,[9]; 63 g ai/ha,98
same,CHEAL phytotoxicity rating,[9]; 250 g ai/ha,100
same,CASOB phytotoxicity rating,[10]; 63 g ai/ha,100
same,CASOB phytotoxicity rating,[10]; 250 g ai/ha,100
same,SETVI phytotoxicity rating,[11]; 63 g ai/ha,30
same,SETVI phytotoxicity rating,[11]; 250 g ai/ha,50
same,SORHA phytotoxicity rating,[12]; 63 g ai/ha,20
same,SORHA phytotoxicity rating,[12]; 250 g ai/ha,40
same,phytotoxicity rating ECHCG,"[13]; 63 g ai/ha, scale 0-100",10
same,phytotoxicity rating ECHCG,"[13]; 250 g ai/ha, scale 0-100",70
same,phytotoxicity rating IPOHE,"[14]; 63 g ai/ha, scale 0-100",0
same,phytotoxicity rating IPOHE,"[14]; 250 g ai/ha, scale 0-100",0
same,phytotoxicity rating DIGSA,"[15]; 63 g ai/ha, scale 0-100",50
same,phytotoxicity rating DIGSA,"[15]; 250 g ai/ha, scale 0-100",80
same,phytotoxicity rating ABUTH,"[16]; 63 g ai/ha, scale 0-100",60
same,phytotoxicity rating ABUTH,"[16]; 250 g ai/ha, scale 0-100",90
same,phytotoxicity rating CHEAL,"[17]; 63 g ai/ha, scale 0-100",95
same,phytotoxicity rating CHEAL,"[17]; 250 g ai/ha, scale 0-100",100
same,phytotoxicity rating CASOB,"[18]; 63 g ai/ha, scale 0-100",0
same,phytotoxicity rating CASOB,"[18]; 250 g ai/ha, scale 0-100",50
same,phytotoxicity rating SETVI,"[19]; 63 g ai/ha, scale 0-100",30
same,phytotoxicity rating SETVI,"[19]; 250 g ai/ha, scale 0-100",70
same,phytotoxicity rating SORHA,"[20]; 63 g ai/ha, scale 0-100",0
same,phytotoxicity rating SORHA,"[20]; 250 g ai/ha, scale 0-100",30
same,phytotoxicity rating CORN (crop damage),[21]; 63 g ai/ha,0
same,phytotoxicity rating CORN (crop damage),[21]; 250 g ai/ha,0
same,phytotoxicity rating RICE (crop damage),[22]; 63 g ai/ha,0
same,phytotoxicity rating RICE (crop damage),[22]; 250 g ai/ha,30
